From ChEMBL document CHEMBL1148163, “Studies on inhibitors of skin tumor promotion, XII. Rotenoids from Amorpha fruticosa” (J Nat Prod, 1993)

Tests used:
Raji [1] = test: Inhibition of 12-O-tetradecanoylphorbol-13-acetate induced EBV-early antigen activation in human Raji cells assessed as EA activation at 500 molar ratio relative to TPA; assay type: cell-based; design: scale not given: the % may be the effect or the level left; details: human gammaherpesvirus 4
Raji [2] = test: Inhibition of 12-O-tetradecanoylphorbol-13-acetate induced EBV-early antigen activation in human Raji cells assessed as EA activation at 100 molar ratio relative to TPA; assay type: cell-based; design: scale not given: the % may be the effect or the level left; details: human gammaherpesvirus 4
Raji [3] = test: Inhibition of 12-O-tetradecanoylphorbol-13-acetate induced EBV-early antigen activation in human Raji cells assessed as EA activation at 10 molar ratio relative to TPA; assay type: cell-based; design: scale not given: the % may be the effect or the level left; details: human gammaherpesvirus 4
[4] = Cytotoxicity against human Raji cells assessed as cell viability at 1000 molar ratio; assay type: cell-based; details: read-out: Activity
[5] = Cytotoxicity against human Raji cells assessed as cell viability at 500 molar ratio; assay type: cell-based; details: read-out: Activity
[6] = Cytotoxicity against human Raji cells assessed as cell viability at 100 molar ratio; assay type: cell-based; details: read-out: Activity
[7] = Cytotoxicity against human Raji cells assessed as cell viability at 10 molar ratio; assay type: cell-based; details: read-out: Activity
Raji [8] = test: Inhibition of 12-O-tetradecanoylphorbol-13-acetate induced EBV-early antigen activation in human Raji cells assessed as EA activation at 1000 molar ratio relative to TPA; assay type: cell-based; design: scale not given: the % may be the effect or the level left; details: human gammaherpesvirus 4
Raji [9] = test: Effect on TPA-induced cell cycle arrest in human Raji cells assessed as accumulation at G1 phase at 32 nmol by flow cytometry; assay type: functional
Raji [10] = test: Effect on TPA-induced cell cycle arrest in human Raji cells assessed as accumulation at S phase at 32 nmol by flow cytometry; assay type: functional
Raji [11] = test: Effect on TPA-induced cell cycle arrest in human Raji cells assessed as accumulation at G2/M phase at 32 nmol by flow cytometry; assay type: functional
Mus musculus [12] = test: Inhibition of DMBA-induced/TPA-promoted carcinogenesis in ICR mouse assessed as number of mouse bearing one papilloma at 85 nmol administered twice weekly after 1 week of initiation; assay type: functional; design: scale not given: the % may be the effect or the level left
Mus musculus [13] = test: Inhibition of DMBA-induced/TPA-promoted carcinogenesis in ICR mouse assessed as reduction in skin-papilloma formation at 85 nmol administered twice weekly after 1 week of initiation for 20 weeks; assay type: functional; design: scale not given: the % may be the effect or the level left
Mus musculus [14] = test: Inhibition of DMBA-induced/TPA-promoted carcinogenesis in ICR mouse assessed as number of skin papillomas per mouse at 85 nmol administered twice weekly after 1 week of initiation for 20 weeks; assay type: functional; design: scale not given: the % may be the effect or the level left

Compound	Activity (Raji [1]) [%]	Activity (Raji [2]) [%]	Activity (Raji [3]) [%]	viability at 1000 molar ratio [4] [%]	viability at 500 molar ratio [5] [%]	viability at 100 molar ratio [6] [%]	viability at 10 molar ratio [7] [%]	Activity (Raji [8]) [%]	Activity (Raji [9]) [%]	Activity (Raji [10]) [%]	Activity (Raji [11]) [%]	Activity (Mus musculus [12]) [%]	Activity (Mus musculus [13]) [%]	Activity (Mus musculus [14]) [%]
COc1cc2c(cc1OC)[C@@H]1C(=O)c3ccc4c(c3O[C@@H]1CO2)C[C@H](C(C)(C)O[C@@H]1O[C@H](CO)[C@@H](O)[C@H](O)[C@H]1O)O4	36.3	87.3	100	80	80	80	80	0						
COc1cc2c(cc1OC)[C@]1(O)C(=O)c3ccc4c(c3O[C@@H]1CO2)C[C@H](C(C)(C)O)O4	43.9	82.1	100	80	80	80	80	22.6						
C=C(CO)[C@H]1Cc2c(ccc3c2O[C@@H]2COc4cc(OC)c(OC)cc4[C@@H]2C3=O)O1 [AMORPHIGENIN]	64.2	100	100	80	80	80	80	31.7						
COC1=CC(=O)[C@]2(C=C1OC)OC[C@H]1Oc3c(ccc4c3C=CC(C)(C)O4)C(=O)[C@H]12 [AMORPHISPIRONONE]	31.8	70.4	100	20	80	80	80	0	59.1	10.3	30.6	20	>80	>90
C=C(CO)[C@H]1Cc2c(ccc3c2O[C@@H]2COc4cc(OC)c(OC)cc4[C@]2(O)C3=O)O1 [DABINOL]	89.7	100	100	80	80	80	80	24.2						
COc1cc2c(cc1OC)[C@]1(O)C(=O)c3ccc4c(c3O[C@@H]1CO2)C=CC(C)(C)O4 [TEPHROSIN]	26.1	60.4	89.3	40	60	70	80	8	57.8	13.4	28.8		60	70
